This is an account of results in article PMC7096398, “Oxytocin Receptors Regulate Social Preference in Zebrafish” (Scientific Reports, 2020).

A word on the EC50: it is the midpoint of the concentration-response curve.

Values joined by “and” are separate entries in the source; they are usually repeats but may differ in a detail not shown here. Identical values can stand only once. Like-named read-outs stand apart in the source and are kept apart here. Positions of bridges follow the written chain, without caps; N, C: chain ends. Residues, ends and D or L forms follow the SMILES beside them.

Assay [1] has as its system zebrafish. On the set-up: method as in 4 sources, ref 42 = [42]; PMID 21956239; doi:10.1007/s00213-011-2482-2; 42. Braida D Neurohypophyseal hormones manipulation modulate social and anxiety-related behavior in zebrafish Psychopharmacology (Berl) 2012 220 319 330 10.1007/s00213-011-2482-2 21956239 ||| ref 44 = [44]; PMID 27247142; doi:10.1016/j.bbr.2016.05.059; 44. Zimmermann FF Gaspary KV Siebel AM Bonan CD Oxytocin reversed MK-801-induced social interaction and aggression deficits in zebrafish Behav Brain Res 2016 311 368 374 10.1016/j.bbr.2016.05.059 2724 ||| ref 51 = [51]; doi:10.1163/1568539x-00003261; 51. Lindeyer CM Langen EMA Swaney WT Reader SM Nonapeptide influences on social behaviour: effects of vasotocin and isotocin on shoaling and interaction in zebrafish Behaviour 2015 152 897 915 10.1163 ||| ref 27 = [27]; PMID 26347614; doi:10.3389/fncir.2015.00039; 27. Dreosti E Lopes G Kampff AR Wilson SW Development of social behavior in young zebrafish Front Neural Circuits 2015 9 39 10.3389/fncir.2015.00039 26347614 PMC4539524. The following applies: cited from earlier work. An excerpt:
Thus far, dopamine[56] and serotonin[57] in the mesolimbic system and excitation-inhibition balance[58] seem to play a prominent role in social investigation in rodents. Similarly, levels of dopamine and serotonin are modulated in socially interacting fish[59]–[61] and social preference behaviour decreases after treatment with a dopamine D1 receptor antagonist. […] In rodents, release of ... || (+ 1 further places)

Assay [2] addresses T1, Oxtrl (Danio rerio, UniProt E4W698).
T1 construct: host or cells: HEK293
T1 sequence (E4W698 1-382): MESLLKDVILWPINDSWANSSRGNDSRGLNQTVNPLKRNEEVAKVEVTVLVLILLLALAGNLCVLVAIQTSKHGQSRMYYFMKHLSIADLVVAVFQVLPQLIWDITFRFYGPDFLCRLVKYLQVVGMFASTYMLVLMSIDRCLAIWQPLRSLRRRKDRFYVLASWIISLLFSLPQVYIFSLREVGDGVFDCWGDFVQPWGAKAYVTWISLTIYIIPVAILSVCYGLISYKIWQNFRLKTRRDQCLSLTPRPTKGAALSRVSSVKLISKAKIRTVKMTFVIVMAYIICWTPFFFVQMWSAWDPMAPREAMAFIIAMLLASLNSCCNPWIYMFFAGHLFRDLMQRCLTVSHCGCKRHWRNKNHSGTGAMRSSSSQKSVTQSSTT
Description: Inositol phosphate accumulation assay, agonist potency at Oxtrl. It counts as cell-based, zebrafish. As to the method: (§1) The receptor constructs were ordered from GeneScript and subcloned into a pcDNA3.1/CT-GFP-TOPO vector. The coding sequences of the GenBank entries NM_001199370.1 (oxtr), NM_001199369.1 (oxtrl), NM_001301114.1 (avpr1aa), and NM_001297676.1 (avpr1ab) were used for synthesis. The stop codons were removed, and an additional […] was added to facilitate hybrid protein expression with GFP in frame from the vector. The GCCACC Kozak sequence was inserted before the start codons. After transformation of the plasmid constructs into TOP10 competent cells (Thermo Fisher Scientific), the Maxiprep (Thermo Fisher Scientific) method was used to amplify the plasmids for transfection.
(§2) The Inositol phosphate accumulation assay was performed according to previous descriptions to measure the potency of different ligands for zebrafish different oxytocin related receptors. Each receptor construct was transfected into HEK293 cells using Lipofectamine 2000 (Thermo Fisher Scientific). Myo2-^3H-inositol (PerkinElmer) at 3 μCi/mL was added the day after transfection. On day three, cells were re-suspended in assay buffer (10 mM LiCl, 20 mM HEPES, 137 mM NaCl, 5 mM KCl, 0.44 mM KH2PO4, 4.2 mM NaHCO3, 1.2 mM MgCl2, 1 mM CaCl2, and 10 mM glucose), after incubation in a PBS/EDTA mixture (0.2 g/L). After 10 minutes of pre-incubation at 37 °C, the cells were stimulated with serial dilution of peptides for 25 minutes at 37 °C. […] Cells were lysed for 60 minutes at 4 °C with an equal volume of 0.8 M perchloric acid, and then neutralised with KOH/KHCO3 solution. Ion exchange chromatography on AG 1-X8 resin (Bio-Rad) was used to collect the generated ^3H-inositol phosphates. The resin was washed with buffer containing 5 mM Na2B4O7 and 60 mM NH4-formate and eluted with buffer containing 1 M NH4-formate and 0.1 M formic acid. Samples were mixed with OptiPhase HiSafe (PerkinElmer Waltham, MA, USA) and ^3H radioactivity was measured with a Tri-Carb 2910TR liquid scintillation counter (PerkinElmer Waltham, MA, USA). The assays were performed in duplicate for each concentration and repeated at least 3 times.

Assay [3] deals with T2, Avpr1aa (Danio rerio, UniProt A0A8M1P1H3).
T2 sequence (A0A8M1P1H3 1-379): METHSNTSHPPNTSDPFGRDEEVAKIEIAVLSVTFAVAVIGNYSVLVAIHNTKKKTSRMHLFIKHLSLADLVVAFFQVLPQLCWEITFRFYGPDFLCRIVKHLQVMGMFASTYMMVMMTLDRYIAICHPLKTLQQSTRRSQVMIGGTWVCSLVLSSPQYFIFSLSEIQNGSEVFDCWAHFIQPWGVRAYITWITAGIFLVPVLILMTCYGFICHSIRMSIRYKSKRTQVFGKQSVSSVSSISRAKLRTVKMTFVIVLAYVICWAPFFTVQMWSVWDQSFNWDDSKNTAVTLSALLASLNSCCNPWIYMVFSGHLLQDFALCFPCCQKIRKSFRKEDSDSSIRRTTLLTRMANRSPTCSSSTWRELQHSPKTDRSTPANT
Description: Inositol phosphate accumulation assay, agonist potency at Avpr1aa. It counts as cell-based, zebrafish. As to the method:
as §1, §2

Assay [4] has as its target T3, Avpr1ab (Danio rerio, UniProt A0A8M1P6E3).
T3 sequence (A0A8M1P6E3 1-410): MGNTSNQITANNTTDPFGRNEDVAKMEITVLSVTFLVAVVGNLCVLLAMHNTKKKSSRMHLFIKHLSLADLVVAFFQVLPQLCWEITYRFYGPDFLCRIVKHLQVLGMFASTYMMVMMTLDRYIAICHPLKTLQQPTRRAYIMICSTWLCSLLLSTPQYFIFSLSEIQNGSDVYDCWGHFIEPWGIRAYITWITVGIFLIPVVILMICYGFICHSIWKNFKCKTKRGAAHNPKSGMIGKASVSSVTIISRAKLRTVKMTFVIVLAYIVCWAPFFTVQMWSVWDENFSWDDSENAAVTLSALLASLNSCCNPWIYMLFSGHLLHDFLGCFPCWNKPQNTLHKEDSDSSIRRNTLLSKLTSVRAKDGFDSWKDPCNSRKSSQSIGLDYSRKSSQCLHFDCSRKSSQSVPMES
The assay is described as follows: Inositol phosphate accumulation assay, agonist potency at Avpr1ab. The assay is classed as cell-based, zebrafish. As to the method: as §1, §2

Assay [5] addresses T4, Oxtr (Danio rerio, UniProt E4W699).
T4 construct: host or cells: HEK293
T4 sequence (E4W699 1-388): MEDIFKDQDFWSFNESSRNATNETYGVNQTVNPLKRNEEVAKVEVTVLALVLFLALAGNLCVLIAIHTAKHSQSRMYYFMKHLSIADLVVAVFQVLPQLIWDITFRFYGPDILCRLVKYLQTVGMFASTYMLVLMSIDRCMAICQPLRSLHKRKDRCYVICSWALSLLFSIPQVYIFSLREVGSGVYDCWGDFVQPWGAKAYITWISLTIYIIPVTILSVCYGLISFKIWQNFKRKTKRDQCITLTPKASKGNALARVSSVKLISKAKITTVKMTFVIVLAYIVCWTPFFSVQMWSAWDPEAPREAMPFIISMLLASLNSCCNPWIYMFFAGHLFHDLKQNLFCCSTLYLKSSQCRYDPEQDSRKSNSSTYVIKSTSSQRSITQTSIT
The assay is described as follows: Inositol phosphate accumulation assay, agonist potency at Oxtr. It counts as cell-based, zebrafish. As to the method:
as §1, §2

Setting [6] is: read-out: Potency (EC50) at Oxtrl.
The mark [7] stands for this setting: HEK293 cells transfected with zebrafish Avpr1aa, 3H-inositol phosphate accumulation, 10 min pre-incubation, 25 min stimulation, 37 °C, duplicates, table: mean ± SEM, n = 3 (zOT n = 4), read-out: Potency (EC50) at Avpr1aa.
The mark [8] stands for this setting: HEK293 cells transfected with zebrafish Avpr1ab, 3H-inositol phosphate accumulation, 10 min pre-incubation, 25 min stimulation, 37 °C, duplicates, table: mean ± SEM, n = 3, read-out: Potency (EC50) at Avpr1ab.

Turning to `C[C@]12N[C@H](Cc3ccccc31)c1ccccc12` [MK-801], the Social preference deficits entry in assay [1] (zebrafish) is reported as “deficits in social preference induced”.
On to `CC[C@H](C)[C@@H]1NC(=O)[C@H](Cc2ccc(O)cc2)NC(=O)[C@@H](N)CSSC[C@@H](C(=O)N2CCC[C@H]2C(=O)N[C@@H](CC(C)C)C(=O)NCC(N)=O)NC(=O)[C@H](CC(N)=O)NC(=O)[C@H](CCC(N)=O)NC1=O` [OT], for which the EC50 in assay [2] (setting [6]) is 20 to 50 nM and 34.8 nM; in assay [3] (setting [7]) it was 20 to 50 nM and 21.5 nM; in assay [4] (setting [8]) it was 20 to 50 nM and 42.1 nM; in assay [5], 20 to 50 nM and 47.9 nM.
With `CCO` [ethanol], the “Social preference, developing zebrafish” value in assay [1] (high concentrations) is “inhibit social preference”.
For the compound `CC[C@H](C)[C@@H]1NC(=O)[C@H](Cc2ccc(O)cc2)NC(=O)[C@@H](N)CSSC[C@@H](C(=O)N2CCC[C@H]2C(=O)N[C@H](C(=O)NCC(N)=O)[C@@H](C)CC)NC(=O)[C@H](CC(N)=O)NC(=O)[C@H](CO)NC1=O` [zOT] (H-CYISNCPIG-NH2; disulfide 1-6), the EC50 in assay [2] (setting [6]) was determined as 3.14 ± 1.1 nM; in assay [3] (setting [7]), 317 ± 79 nM; in assay [4] (setting [8]) it was 3.52 ± 0.94 nM; in assay [5] (HEK293 cells transfected with zebrafish Oxtr, 3H-inositol phosphate accumulation, 10 min pre-incubation, 25 min stimulation, 37 °C, duplicates, table: mean ± SEM, n = 3, read-out: Potency (EC50) at Oxtr), 2.99 ± 0.93 nM.
For `CC[C@H](C)[C@@H]1NC(=O)[C@H](Cc2ccc(O)cc2)NC(=O)[C@@H](N)CSSC[C@@H](C(=O)N2CCC[C@H]2C(=O)N[C@@H](CCCNC(=N)N)C(=O)NCC(N)=O)NC(=O)[C@H](CC(N)=O)NC(=O)[C@H](CCC(N)=O)NC1=O` [zVP] (H-CYIQNCPRG-NH2; disulfide 1-6), the EC50 in assay [2] was 27 ± 9.5 nM; in assay [3], > 317 nM and 727 nM; in assay [4], 2.79 ± 1.4 nM; in assay [5], 11 ± 3 nM.
For the compound carbetocin, the “Social deficits following MK-801 exposure” value in assay [1] (zebrafish exposed to glutamate antagonist MK-801) is “rescued social deficits”.
